Measurements reported in US20050244938A1, “Manzamine-producing actinomycetes” (priority 2002, published 2005).
≈ marks a conversion by molar mass, not a printed value. Where two headings read alike, the source gives them in different places.

Tests used:
[1] = system: P. falciparum (chlorine-resistant W2 clone); assay: in vitro antimalarial activity, resistant W2 clone; assay type: cell-based, Plasmodium falciparum; settings: NA = not active; for IC50: Plasmodium falciparum, read-out: P. falciparum (chlorine-resistant W2 clone) in vitro IC 50
[2] = system: Plasmodium falciparum (D6 clone); assay: in vitro antimalarial activity, D6 clone; assay type: cell-based; settings: for IC50: Plasmodium falciparum
[3] = system: Mycobacterium tuberculosis (H37Rv); assay: microplate Alamar Blue assay, in vitro activity against Mycobacterium tuberculosis; assay type: cell-based
[4] = system: Fusarium oxysporium ATCC 7601; assay: microbial transformation study to model human metabolism; settings: monitored by TLC, metabolite identical to ent-12,34-oxamanzamine F (2)
Procedure: (§1) In order to model the human metabolism of the manzamines and to generate additional analogs for biological evaluation, microbial transformation studies were performed for ent-8-hydroxymanzamine A (El Sayed, et al., 2001) (3). Thirty-three growing microbial cultures were screened for their potential to bioconvert 3 to new metabolites.

[5] = system: Nocardia sp. ATCC 21145; assay: as above; settings: monitored by TLC, metabolite identical to ent-12,34-oxamanzamine F (2)
Procedure: as §1

[6] = toxicity (no method); settings: qualitative statement
[7] = D6 clone, in vitro, NA = not active

Which results are given for `O=C1CCCN2[C@H]3[C@]45CN6CCCC/C=C\CC[C@]3(C=C(c3nccc7c3[nH]c3c(O)cccc37)[C@H]4CC6)O[C@]2(CC1)C5` (single isomer, unassigned; ent-12) [ent-12,34-Oxamanzamine F (2), ent-12,34-oxamanzamine F]?
P. falciparum (chlorine-resistant W2 clone) in vitro IC 50 [1]: 1.1 µg/mL; Plasmodium falciparum (D6 clone) in vitro IC 50 [2, 7]: 0.84 µg/mL; Mycobacterium tuberculosis (H37Rv) MIC [3]: 12.5 µg/mL

With `O[C@]12C=C(c3nccc4c3[nH]c3ccccc34)C3CCN(CCCC/C=C\CC1)C[C@@]31C[C@]34CC[C@H](CCCN3[C@H]12)O4` (some centres unmarked) [6-Deoxymanzamine X, 6-deoxymanzamine X] as the compound, how does the “P. falciparum (chlorine-resistant W2 clone) in vitro IC 50” value [1] read?
Its value is 1.4 µg/mL.

And the “Plasmodium falciparum (D6 clone) in vitro IC 50” value (shortened to “Plasmodium falciparum (D6 clone)”) [2, 7]?
Its value is 1.3 µg/mL.

What about the “Mycobacterium tuberculosis (H37Rv) MIC” value [3] of the same compound?
The value was 1.77 µg/mL.

For `C1=C(c2nccc3c2[nH]c2ccccc23)[C@@H]2CCN3CCCC/C=C\CC[C@]14O[C@@]15/C=C\CCCCN1[C@@H]4[C@]2(C3)C5` [12,34-oxamanzamine A (4), 12,34-oxamanzamine A], which “Plasmodium falciparum (D6 clone)” value [2, 7] is on record?
Its value is 4.76 µg/mL.

Which IC50 [1] does the source give for `C[C@@H]1CC[C@H]2[C@@H](C)C(=O)O[C@@H]3O[C@@]4(C)CC[C@@H]1[C@]32OO4` [Artemisinin] here?
The IC50 was 0.0063 µg/mL (≈ 0.0223 µM).

And the IC50 ([2]; D6 clone, in vitro, NA = not active, read-out: Plasmodium falciparum (D6 clone) in vitro IC 50)?
Its IC50 is 0.01 µg/mL (≈ 0.0354 µM).

Which IC50 [1] does the source give for `CCN(CC)CCCC(C)Nc1ccnc2cc(Cl)ccc12` (centres unmarked) [Chloroquine] here?
Its IC50 is 0.17 µg/mL (≈ 0.531 µM).

What about the IC50 ([2]; D6, read-out: Plasmodium falciparum (D6 clone) in vitro IC 50) of the same compound?
Its IC50 is 0.0155 µg/mL (≈ 0.0485 µM).

Which “Mycobacterium tuberculosis (H37Rv) MIC” value [3] does the source give for `O=CC1=C[C@@]2(O)CC/C=C\CCCCN3CC[C@@H]1[C@]1(CC4/C=C\CCCCN4[C@H]12)C3` (some centres unmarked) [Ircinal A, ircinal A] here?
The value was 30.2 µg/mL.

What does the source list for `O[C@]12C=C(c3nccc4c3[nH]c3ccccc34)[C@@H]3CCN(CCCC/C=C\CC1)C[C@@]31C[C@@H]3/C=C\CCCCN3[C@H]12` [Manzamine A, manzamine A]?
P. falciparum (chlorine-resistant W2 clone) in vitro IC 50 [1]: 0.008 µg/mL; Plasmodium falciparum (D6 clone) in vitro IC 50 [2, 7]: 0.0045 µg/mL; Mycobacterium tuberculosis (H37Rv) MIC [3]: 1.53 µg/mL

What does the source list for `O=C1CCCN2[C@@H](CC1)C[C@]13CN4CCCC/C=C\CC[C@](O)(C=C(c5nccc6c5[nH]c5ccccc56)[C@@H]1CC4)[C@H]23` [Manzamine E, manzamine E]?
P. falciparum (chlorine-resistant W2 clone) in vitro IC 50 [1]: 4.76 µg/mL; Plasmodium falciparum (D6 clone) in vitro IC 50 [2, 7]: 3.4 µg/mL; Mycobacterium tuberculosis (H37Rv) MIC [3]: 3.76 µg/mL

What does the source list for `O=C1CCCN2[C@@H](CC1)C[C@]13CN4CCCC/C=C\CC[C@](O)(C=C(c5nccc6c5[nH]c5c(O)cccc56)C1CC4)[C@H]23` (some centres unmarked) [Manzamine F, manzamine F]?
P. falciparum (chlorine-resistant W2 clone) in vitro IC 50 [1]: 1.7 µg/mL; Plasmodium falciparum (D6 clone) in vitro IC 50 [2, 7]: 0.78 µg/mL; Mycobacterium tuberculosis (H37Rv) MIC [3]: 2.56 µg/mL

Which “P. falciparum (chlorine-resistant W2 clone) in vitro IC 50” value [1] does the source give for (+)-8-hydroxymanzamine A here?
Its value is 0.008 µg/mL.

And the “Plasmodium falciparum (D6 clone)” value [2, 7]?
The value was 0.006 µg/mL.

And the “Mycobacterium tuberculosis (H37Rv) MIC” value [3]?
Its value is 0.91 µg/mL.

For “ent-8-hydroxymanzamine A [ent-8-hydroxymanzamine A (3)]”, which “bioconversion by growing microbial culture” value [4] is on record?
The value was “exhaustively metabolize”.

And the “bioconversion by growing microbial culture” value [5]?
The value was “exhaustively metabolize”.

What about the “Mycobacterium tuberculosis (H37Rv) MIC” value [3] of the same compound?
Its value is 3.13 µg/mL.

With “ent-12,34-oxamanzamine E [ent-12,34-Oxamanamine E (1)]” as the compound, how does the “Mycobacterium tuberculosis (H37Rv) MIC” value [3] read?
Its value is 128 µg/mL.

What does the source list for ircinol A?
toxicity [6]: minimal toxicity; P. falciparum (chlorine-resistant W2 clone) in vitro IC 50 [1]: 3.1 µg/mL; Plasmodium falciparum (D6 clone) in vitro IC 50 [2, 7]: 2.4 µg/mL; Mycobacterium tuberculosis (H37Rv) MIC [3]: 1.93 µg/mL
